Measured values from article PMC8056388 (ACS Chemical Biology, 2021).

Columns and labels:
WT PqsE [1] = target: T1, WT PqsE (Pseudomonas aeruginosa, UniProt P20581); experiment: Fluorescence polarization binding of BB562; conditions: purified WT PqsE
P. aeruginosa PAO1 = conditions: cited from earlier work
PqsE S285A [2] = target: T2, PqsE S285A (Pseudomonas aeruginosa, UniProt P20581, S285A); format: binding
PqsE S160A = PqsE S160A (Pseudomonas aeruginosa, UniProt P20581, S160A); format: binding
hcnA = experiment: qRT-PCR of hcnA transcript; conditions: P. aeruginosa PA14, 100 μM compound
WT PqsE [3] = target: T1, WT PqsE; experiment: biochemical; format: binding
phzH = experiment: qRT-PCR of phzH transcript; conditions: P. aeruginosa PA14, 100 μM compound
P. aeruginosa PA14 = format: cell-based; conditions: P. aeruginosa PA14 cultures, 100 μM compound, 17 h
PqsE S285A [4] = target: T2, PqsE S285A; format: biochemical
PqsE-RhlR interaction = PqsE-RhlR interaction (Pseudomonas aeruginosa, UniProt P20581); experiment: PqsE-RhlR interaction pull-down assay; format: binding; conditions: PqsE:compound 1:1 and 1:2 molar ratios, SDS-PAGE

SMILES	apparent binding constant (Kapp), in words (WT PqsE [1])	pyocyanin production (P. aeruginosa PAO1)	ΔTm PqsE S285A (PqsE S285A [2])	ΔTm PqsE S160A (PqsE S160A) [°C]	transcription of hcnA (hcnA)	EC50 (WT PqsE [3]) [nM]	transcription of phzH (phzH)	pyocyanin production (P. aeruginosa PA14)	projected IC50 for PqsE S285A relative to WT PqsE (PqsE S285A [4])	suppression of the interaction between PqsE and RhlR (PqsE-RhlR interaction)
O=C(NCCCn1cc(-c2ccc(NC(=O)c3cccc4cn[nH]c34)cc2)nn1)c1ccc2c(c1)C(=O)OC21c2ccc(O)cc2Oc2cc(O)ccc21 [BB562]	midnanomolar range	–	–	–	–	–	–	–	–	–
O=C(O)c1ccccc1-c1cccnc1 [C1, 2-(pyridin-3′-yl) benzoic acid, reference compound]	–	did not affect pyocyanin production	8.5 °C	12.1	–	–	–	–	–	–
O=C(Nc1cccc(-c2ccn[nH]2)c1)c1cccc2cn[nH]c12 [BB391]	–	–	lost the ability to shift the Tm	5.0	neither molecule drove altered transcription	255	neither molecule drove altered transcription	neither molecule caused any decrease in pyocyanin production	at least a log unit higher	neither BB391 nor BB393 suppressed the interaction
